Assay results reported in PubChem BioAssay (NCI).
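A five-concentration, 48-hour dose response in 96-well plates underlies each endpoint, interpolated linearly between surrounding concentrations. GI50 is the concentration that inhibits growth by half. Definition used: TGI = concentration required for complete inhibition of growth.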

Experiments:
Test in all cases: inhibition of tumour cell growth, NCI panel, 48 h
[1] = system: EKVX NSCLC
[2] = system: BT-549 breast
[3] = system: HS 578T breast
[4] = system: OVCAR-4 ovarian
[5] = system: MDA-MB-231 breast
[6] = system: SF-295 CNS
[7] = system: CCRF-CEM leukemia
[8] = system: SR leukemia
[9] = system: SN12C renal
[10] = system: NCI-H522 lung

O=NN(Cc1ccc(Cl)cc1)C(C(=O)O)c1ccccc1 (stereo not drawn)
TGI [1]: > 100 µM | TGI [2]: > 100 µM | TGI [3]: > 100 µM | TGI [4]: > 100 µM | TGI [5]: > 100 µM | TGI [6]: > 100 µM | TGI [7]: > 100 µM | TGI [8]: > 100 µM | TGI [9]: > 100 µM | TGI [10]: > 100 µM

CCc1c(Oc2ccc(C(C)=O)cc2)c2ccccc2[nH]c1=O
GI50 [1]: 9.65 µM | TGI [1]: > 66 µM | GI50 [2]: 17.6 µM | TGI [2]: 70.8 µM | GI50 [3]: 4.3 µM | TGI [3]: 43.6 µM | GI50 [4]: 70 µM | TGI [4]: > 100 µM | GI50 [5]: 7.03 µM | TGI [5]: 39.1 µM | GI50 [6]: 16.3 µM | TGI [6]: > 69.4 µM | TGI [7]: > 43.6 µM | GI50 [8]: 9.09 µM | TGI [8]: > 100 µM | GI50 [9]: 16.6 µM | TGI [9]: 61.8 µM | GI50 [10]: 14.1 µM | TGI [10]: > 68.3 µM

COc1ccc2c(c1)c(-c1nc(-c3cn(C)c4ncccc34)cs1)cn2CCCN1CCCCC1
GI50 [1]: 1.67 µM | TGI [1]: 3.17 µM | GI50 [2]: 4.91 µM | TGI [2]: 19.5 µM | GI50 [3]: 2.24 µM | TGI [3]: 5.8 µM | GI50 [4]: 1.87 µM | TGI [4]: 4.64 µM | GI50 [5]: 1.78 µM | TGI [5]: 3.37 µM | GI50 [6]: 1.71 µM | TGI [6]: 3.18 µM | GI50 [7]: 2.05 µM | TGI [7]: 4.04 µM | GI50 [8]: 1.81 µM | TGI [8]: 3.77 µM | GI50 [9]: 1.71 µM | TGI [9]: 3.17 µM | GI50 [10]: 1.68 µM | TGI [10]: 3.37 µM

CC1OC(O[C@H]2C[C@@H](O)[C@]3(CO)[C@H]4[C@H](O)C[C@]5(C)[C@@H](C6=CC(=O)OC6)CC[C@]5(O)[C@@H]4CC[C@]3(O)C2)C(O)C(O)C1O (stereo partly drawn)
GI50 [1]: 16.5 µM | TGI [1]: 30.5 µM | GI50 [2]: 18 µM | TGI [2]: 32.7 µM | GI50 [3]: 25.6 µM | TGI [3]: 65.9 µM | GI50 [4]: 17.3 µM | TGI [4]: 33.1 µM | GI50 [5]: 21 µM | TGI [5]: 40.5 µM | GI50 [6]: 19.3 µM | TGI [6]: 35.3 µM | TGI [7]: 52.5 µM | GI50 [8]: 10.2 µM | TGI [8]: 38 µM | GI50 [9]: 20.6 µM | TGI [9]: 40.6 µM | GI50 [10]: 17.8 µM | TGI [10]: 32.5 µM

COC(=O)CCCCN=Cc1c(O)c(O)c(C(C)C)c2cc(C)c(-c3c(C)cc4c(C(C)C)c(O)c(O)c(C=NCCCCC(=O)OC)c4c3O)c(O)c12
GI50 [1]: 0.924 µM | TGI [1]: > 32.5 µM | GI50 [2]: 1.5 µM | TGI [2]: 23.8 µM | GI50 [3]: 1.49 µM | TGI [3]: > 32.5 µM | GI50 [4]: 0.886 µM | TGI [4]: > 32.5 µM | GI50 [5]: 1.08 µM | TGI [5]: 12.1 µM | GI50 [6]: 0.83 µM | TGI [6]: 7.92 µM | GI50 [7]: 0.746 µM | TGI [7]: 17.5 µM | GI50 [8]: 0.917 µM | TGI [8]: 5.72 µM | GI50 [9]: 1.14 µM | TGI [9]: > 32.5 µM | GI50 [10]: 0.838 µM | TGI [10]: 4.43 µM

O=C1/C(=C/c2ccc(Cl)cc2Cl)N=C(c2ccccc2)N1Cc1ccco1
GI50 [1]: 27.3 µM | TGI [1]: 75 µM | GI50 [2]: 27.4 µM | TGI [2]: 87.9 µM | GI50 [3]: 22.7 µM | TGI [3]: 65 µM | GI50 [4]: 21.2 µM | TGI [4]: 50 µM | GI50 [5]: 17.6 µM | TGI [5]: 49.3 µM | GI50 [6]: 22.2 µM | TGI [6]: 45.9 µM | GI50 [7]: 3.58 µM | TGI [7]: 7.6 µM | GI50 [8]: > 100 µM | TGI [8]: > 100 µM | GI50 [9]: 18.7 µM | TGI [9]: 36.1 µM | GI50 [10]: 18.9 µM | TGI [10]: 48.4 µM

Cc1cc(I)cc(CNCCCN2CCSCC2)c1O
GI50 [1]: 19.1 µM | TGI [1]: 50.3 µM | GI50 [2]: 5.6 µM | TGI [2]: 20.2 µM | GI50 [3]: 12.1 µM | TGI [3]: 26.6 µM | GI50 [4]: 20.3 µM | TGI [4]: 46.7 µM | GI50 [5]: 18.2 µM | TGI [5]: 41.8 µM | GI50 [6]: 11.8 µM | TGI [6]: 24.6 µM | GI50 [7]: 10.4 µM | TGI [7]: 39.9 µM | GI50 [8]: 10.4 µM | TGI [8]: 28.5 µM | GI50 [9]: 41.4 µM | TGI [9]: > 100 µM | GI50 [10]: 18.4 µM | TGI [10]: 36.5 µM

COc1cnc2cc(C(=O)O)c3c([N+](=O)[O-])cccc3c2c1
TGI [1]: > 100 µM | TGI [2]: > 100 µM | TGI [3]: > 100 µM | TGI [4]: > 100 µM | TGI [5]: > 100 µM | TGI [6]: > 100 µM | TGI [7]: > 100 µM | TGI [8]: > 100 µM | TGI [9]: > 100 µM | TGI [10]: > 100 µM

Cc1cc(N(CCOS(C)(=O)=O)CCOS(C)(=O)=O)ccc1C=Nc1ccc(-c2nc(Cc3ccccc3)sc2C)cc1
TGI [1]: 15.8 µM | TGI [2]: 34.8 µM | TGI [3]: 34.6 µM | TGI [4]: 36.8 µM | TGI [5]: 26.9 µM | TGI [6]: 32.4 µM | TGI [7]: 24.3 µM | TGI [8]: 18.5 µM | TGI [9]: 26.3 µM | TGI [10]: 0.648 µM

O=c1oc2ccc(F)cc2c(=O)n1-c1ccc(F)cc1F
GI50 [1]: 2.54 µM | TGI [1]: 9.79 µM | GI50 [2]: 2.53 µM | TGI [2]: 7.4 µM | GI50 [3]: 2.59 µM | TGI [3]: 8.51 µM | GI50 [4]: 3.02 µM | TGI [4]: 30.2 µM | GI50 [5]: 2.3 µM | TGI [5]: 6.99 µM | GI50 [6]: 2.33 µM | TGI [6]: 5.58 µM | GI50 [7]: 3.95 µM | TGI [7]: 67.4 µM | GI50 [8]: 3.69 µM | TGI [8]: > 100 µM | GI50 [9]: 2.72 µM | TGI [9]: 13.7 µM | GI50 [10]: 2.61 µM | TGI [10]: 12.3 µM

COc1ccc(C2=NN(C(=O)c3cc(OC)c(OC)c(OC)c3)C(c3ccc(C#N)cc3)C2)cc1OC (stereo not drawn)
GI50 [1]: 4.59 µM | TGI [1]: > 100 µM | GI50 [2]: 2.98 µM | TGI [2]: > 33.1 µM | GI50 [3]: 1.53 µM | TGI [3]: > 26 µM | GI50 [4]: 3.41 µM | TGI [4]: > 65.1 µM | GI50 [5]: 2.86 µM | TGI [5]: > 45.6 µM | GI50 [6]: 0.351 µM | TGI [6]: 2.37 µM | GI50 [7]: 3.03 µM | TGI [7]: > 100 µM | GI50 [8]: 1.13 µM | TGI [8]: > 100 µM | GI50 [9]: 4.47 µM | TGI [9]: > 100 µM | GI50 [10]: 0.222 µM | TGI [10]: 1.24 µM

COc1cc(OC)cc(-c2ccc(-c3ccc(C(=N)N)o3)o2)c1
GI50 [1]: 5.09 µM | TGI [1]: 18.5 µM | GI50 [2]: 6.91 µM | TGI [2]: 20.1 µM | GI50 [3]: 8.12 µM | TGI [3]: 27.3 µM | GI50 [4]: 3.51 µM | TGI [4]: 14.8 µM | GI50 [5]: 2.35 µM | TGI [5]: 4.78 µM | GI50 [6]: 2.06 µM | TGI [6]: 4.25 µM | GI50 [7]: 2.72 µM | TGI [7]: 7.72 µM | GI50 [8]: 1.68 µM | TGI [8]: 4.36 µM | GI50 [9]: 2.38 µM | TGI [9]: 5.15 µM | GI50 [10]: 2.3 µM | TGI [10]: 7.4 µM

O=C(NCCOCCOCCNc1cccc2c1C(=O)N(C1CCCNC1=O)C2=O)c1cc2c(o1)C(=O)c1ccccc1C2=O (stereo not drawn)
GI50 [1]: 2.88 µM | TGI [1]: 10.1 µM | GI50 [2]: 1.59 µM | TGI [2]: 2.98 µM | GI50 [3]: 2.43 µM | TGI [3]: 7.19 µM | GI50 [4]: 1.41 µM | TGI [4]: 2.73 µM | GI50 [5]: 2.72 µM | TGI [5]: 9.96 µM | GI50 [6]: 1.7 µM | TGI [6]: 3.13 µM | GI50 [7]: 4.48 µM | TGI [7]: > 100 µM | GI50 [8]: 2.63 µM | TGI [8]: > 100 µM | GI50 [9]: 1.52 µM | TGI [9]: 2.96 µM | GI50 [10]: 2 µM | TGI [10]: 4.77 µM

O=C(c1ccco1)c1nc2ccc(C(F)(F)F)cc2[n+]([O-])c1C(F)(F)F
GI50 [1]: 12.9 µM | TGI [1]: > 100 µM | GI50 [2]: 39.4 µM | TGI [2]: > 100 µM | GI50 [3]: > 100 µM | TGI [3]: > 100 µM | GI50 [4]: 10.8 µM | TGI [4]: 48.3 µM | GI50 [5]: 25.4 µM | TGI [5]: > 100 µM | GI50 [6]: 53.2 µM | TGI [6]: > 100 µM | GI50 [7]: > 100 µM | TGI [7]: > 100 µM | GI50 [8]: 20.8 µM | TGI [8]: 57.4 µM | GI50 [9]: > 100 µM | TGI [9]: > 100 µM | GI50 [10]: > 100 µM | TGI [10]: > 100 µM
